This note sets out measurements from patent US20080227770A1, “Benzoxazepine Compound” (Takeda Pharmaceutical Company Limited, priority 2003, published 2008).

For orientation: melting point means the temperature, or range, at which the solid turns liquid. Regarding `COc1cccc([C@H]2O[C@H](Cc3ncc(CC(=O)O)s3)C(=O)N(CC(C)(C)CO)c3ccc(Cl)cc32)c1OC` [Example 1, (2-{[(3R,5S)-7-chloro-5-(2,3-dimethoxyphenyl)-1-(3-hydroxy-2,2-dimethylpropyl)-2-oxo-1,2,3,5-tetrahydro-4,1-benzoxazepin-3-yl]methyl}-1,3-thiazol-5-yl)acetic acid], the melting point was 219 to 222 °C (dec.).
